Experimental data reported in patent US6541501B2, “2-(aminomethyl)-tetrahydro-9-oxa-1,3-diaza-cyclopenta[a]-naphthalenyl derivatives with antipsychotic activity” (Wyeth, priority 2001, dated 2003).
Counter-ions that a name gives are not always drawn.

Key:
[1] = biological target: T1, dopamine autoreceptor (D2 Quin.) (Rattus norvegicus, UniProt P61169); experiment: Affinity for the dopamine autoreceptor, [3H]-quinpirole binding in homogenized rat striatal brain tissue
T1 construct: from tissue; host or cells: rat striatal brain tissue homogenate
T1 sequence (P61169 whole entry): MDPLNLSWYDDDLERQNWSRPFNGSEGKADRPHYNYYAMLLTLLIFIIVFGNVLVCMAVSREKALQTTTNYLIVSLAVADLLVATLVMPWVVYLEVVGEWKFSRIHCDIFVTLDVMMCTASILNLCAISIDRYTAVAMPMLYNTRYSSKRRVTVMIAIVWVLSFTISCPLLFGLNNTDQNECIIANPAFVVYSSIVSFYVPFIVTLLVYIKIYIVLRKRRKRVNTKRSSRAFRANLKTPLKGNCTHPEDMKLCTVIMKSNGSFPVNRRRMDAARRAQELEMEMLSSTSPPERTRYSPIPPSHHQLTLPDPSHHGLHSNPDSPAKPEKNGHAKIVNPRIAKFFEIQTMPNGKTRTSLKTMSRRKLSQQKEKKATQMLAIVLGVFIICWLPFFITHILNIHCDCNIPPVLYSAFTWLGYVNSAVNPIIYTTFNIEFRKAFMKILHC
Protocol: Affinity for the dopamine autoreceptor was established by a modification of the standard experimental test procedure of Seemen and Schaus, European Journal of Pharmacology 203: 105-109, 1991, wherein homogenized rat striatal brain tissue is incubated with [^3H]-quinpirole (Quin.) at various concentrations of test compound, filtered, washed and counted in a Betaplate scintillation counter.

dopamine D2 receptor = experiment: Affinity for the dopamine D2 receptor, [3H]-spiperidone binding in homogenized limbic brain tissue; settings: ratio of IC50 D2 Spiper to IC50 D2 Quin. (LowAg/HighAg)
Protocol: High affinity for the dopamine D2 receptor was established by the standard experimental test procedure of Fields, et al., Brain Res., 136, […] (1977) and Yamamura et al., ed., Neurotransmitter Receptor Binding, Chapter 9, page 171, Raven Press, N.Y. (1978) wherein homogenized limbic brain tissue is incubated with [^3H]-spiperidone at various concentrations of test compound, filtered washed, and shaken with Hydrofluor scintillation cocktail (National Diagnostics) and counted in a Packard 460 CD scintillation counter.

| Compound | IC50 [1] [nM] | Ratio (dopamine D2 receptor) | melting point [°C] |
| --- | --- | --- | --- |
| O=c1[nH]c2ccc3c(c2[nH]1)OC(CNCc1ccccc1)CC3 (stereo not drawn) [Example 1, 8-(Benzylamino-methyl)-3,5,7,8-tetrahydro-9-oxa-1,3-diaza-cyclopenta[a]naphthalen-2-one] | 0.29 | 309 |  |
| O=c1[nH]c2c([nH]1)=C1OC(CNCc3ccccc3)CC=C1CC=2 (stereo not drawn) (as salt: oxalate) [Example 1, 8-(Benzylamino-methyl)-3,5,7,8-tetrahydro-9-oxa-1,3-diaza-cyclopenta[a]naphthalen-2-one] |  |  | 229 |
